{"source": "patent US8222270B2", "about": "(Medicis Pharmaceutical Corporation, priority 2008, dated 2012)", "origin": "cited, not measured here", "test_system": "actinic keratoses", "settings": "cited from earlier work"}
{"smiles": "O=c1[nH]cc(F)c(=O)[nH]1", "note": "[Formulation 5-FU, 5-fluorouracil]", "values": [{"measurement": "Sustained clearance of the total treatment field, patients", "setting": "12-month follow-up", "value": 33, "unit": "%"}, {"measurement": "Sustained clearance rate of initially cleared individual lesions", "setting": "12-month follow-up", "value": 54, "unit": "%"}, {"measurement": "Histological clearance rate", "setting": "in vivo", "value": 67, "unit": "%"}, {"measurement": "Initial clinical clearance, patients", "setting": "in vivo", "value": 96, "unit": "%"}]}
